“Also recorded” adds a separate entry of the source.
Legend:
[1] = test system: mice with liver injury induced by delayed-type hypersensitivity (DTH) reaction; assay: Studies for drug administration time (induction phase and effector phase); type: in vivo; conditions: for serum ALT activity: FIG. 5; for histopathological examination of liver (inflammatory infiltration, hepatocellular coagulation necrosis): 18 hours after injection of picryl chloride into liver
Method: The liver injury was induced by the same manner as described in Experiment 1. To determine the effects of astilbin and RSG ext on the induction phase (during sensitization) and effector phase (after elicitation of liver injury), astilbin (50 and 100 mg/kg) and RSG ext (100 and 200 mg/kg) were administered orally to the mice for once a day after 10 days from the 1st sensitization, and for 3 times at 0, 5 and 10 hours after elicitation, respectively.
For the control studies, mice without drug administration were used, and for the positive control studies, 10 mg/kg cyclophosphamide (Cy) was administered percutaneously to the mice.
18 hours after the injection of picryl chloride into liver, the blood samples were collected for determining the serum ALT activity by the conventional methods. Histopathological examination of liver was also performed.

[2] = test system: CCl4-induced liver injury in mice; assay: Hepatoprotection studies on CCl4-induced liver injury in mice; type: in vivo, ICR male mice; conditions: for ALT / AST: serum, 20 hours after CCl4
Method: ICR male mice (8 mice for each group) were used. Astilbin (50 or 100 mg/kg) and RSG ext (100 or 200 mg/kg) were administered orally for 6 days. One hour after final administration, mice were intraperitoneally injected with 0.2% CCl4 in olive oil (0.2 ml/20 g of body weight).
For the control studies, only CCl4 injected mice without drug administration were used.
Then, 20 hours after administration of CCl4, the blood samples were collected, and used for determining the serum ALT and the serum AST activities by the conventional methods.

[3] = test system: NPC isolated from liver injury mice; assay: ALT-releasing assay, co-culture of HC with pre-treated NPC; type: cell-based; conditions: for ALT activity in supernatants of HC co-cultured with pre-treated NPC: Example 5 Experiment 2, NPC incubated with test compound 1 hour, co-culture 3 hours, FIG. 6
Method: HC and NPC were isolated from mice 12 hours after elicitation of liver injury. Thus obtained HC was suspended in WE medium, and was seeded onto 96-wells microplates (2×10^4 cells/0.2 ml/wells), and incubated at 37° C. for 5 hours with 5% (v/v) CO2 in air. After incubation, the HC was washed twice with WE medium and co-cultured with NPC of 8×10^4 cells for 3 hours. NPC was pre-incubated for 1 hour at 37° C. with various concentration of astilbin or RSG ext. After co-culture, the supernatants were collected for assaying ALT and AST activities by the conventional methods.
HC and NPC were isolated from liver injury mice 12 hours after elicitation, as the same manner described in Experiment 4. Thus the HC was suspended in WE medium, and was seeded onto 96-wells microplates (2×10^4 cells/0.2 ml/wells), and incubated at 37° C. for 5 hours with 5% (v/v) CO2 in air. After incubation, the HC was washed twice with WE medium and co-cultured with NPC of 8×10^4 cells, which were pre-treated with 5×10^−5 g/ml of astilbin or RSG ext for 5, 15, 30, 60 and 120 minutes respectively, at 37° C. for 3 hours. After co-culture, the supernatants were collected for assaying the ALT activity by the conventional methods.
HC (2×10^4 cells/0.2 ml/wells in WE medium) were seeded onto 96-well microplates and incubated at 37° C. with 5% (v/v) CO2 in air.
On the other hand, NPC was incubated in the medium with or without test compounds for 1 hour. The test compounds were smitilbin of the formula (I-a), astilbin of the formula (I-b), engeletin of the formula (I-c), and eucryphin of formula (I-d), respectively.
After 5 hours of the incubation, each monolayers of HC were washed twice with the medium, and then 8×10^4 cells of NPC, pre-treated with or without above test compounds, were added. After 3 hours of further incubation, the supernatants were collected and used for assaying the ALT activity by the conventional methods.

[4] = test system: HC isolated from normal mice, treated with CCl4; assay: Hepatoprotection studies on CCl4-induced hepatocyte damage; type: cell-based; conditions: 5×10^−6 to 1×10^−4 g/ml, HC treated 2 hours, then 0.2% CCl4 1 hour
Method: HC was isolated from the normal mice used in Experiment 8 above. The cells were treated for 2 hours with astilbin or RSG ext, then washed twice with WE medium solution. After washing, 0.1 ml of 0.2% CCl4 in olive oil was added to the cells, and the resulting cells were incubated for 1 hour. The ALT activity in the supernatants was determined by the conventional methods.
HC isolated from the normal mice was used. The cells were treated for 2 hours with test compounds. After treatment, the cells were washed twice, and incubated for 1 hour after addition of 0.1 ml of 0.2% CCl4. The obtained supernatants were collected for assaying the ALT activity by the conventional methods. For the control studies, non-treated HC with test compounds were used.

[5] = test system: total NPC isolated from liver injury mice; assay: Apoptosis measurement No. 1, counting of apoptotic cells (Hoechst 33342); type: cell-based; conditions: 5×10^−5 g/ml, 1 hour, 37° C., NPC from liver injury mice 12 hours after elicitation, FIG. 1
Method: (§1) HC and NPC isolated from liver injury mice 12 hours after elicitation, and fraction of adherent cells and non-adherent cells isolated from NPC were used. These cells were incubated with 5×10^−5 g/ml of astilbin and RSG ext, as the testing compounds, in RPMI 1640 medium at 37° C. for 1 hour, respectively. After incubation, the cells were stained with Hoechst 33342 (Molecular Probes, Inc., USA) for 1 minute at room temperature. After washed three times with RPMI 1640 medium, the obtained cells were fixed with 2% formaldehyde in phosphate buffer solution (PBS). The apoptotic cells among the total population were determined by counting a total of 200 cells in five different fields under fluorescent microscope. For the control studies, the cells treated without test compounds were incubated and followed by the same manner.

[6] = test system: adherent cells isolated from NPC; assay: as above; type: cell-based, mice; conditions: 5×10^−5 g/ml, 1 hour, 37° C., FIG. 1
Method: as §1, with “Additionally, a part of NPC was incubated on the culture plate for 3 hours in order to separate adherent cells from non-adherent cells. […] HC” for “HC”

[7] = test system: non-adherent cells isolated from NPC; assay: as above; type: cell-based, mice; conditions: 5×10^−5 g/ml, 1 hour, 37° C., FIG. 1
Method: as §1, with “Additionally, a part of NPC was incubated on the culture plate for 3 hours in order to separate adherent cells from non-adherent cells. […] HC” for “HC”

[8] = test system: NPC isolated from liver injury mice; assay: Apoptosis measurement No. 2, DNA fragmentation assay (gel agarose electrophoresis); type: cell-based; conditions: 5×10^−5 g/ml, 1 hour, NPC from liver injury mice 12 hours after elicitation
[9] = test system: NPC and spleen cells isolated from normal mice; assay: as above; type: cell-based; conditions: 5×10^−5 g/ml, 1 hour
[10] = test system: HC isolated from liver injury mice; assay: ALT-releasing assay, co-culture of NPC with pre-treated HC; type: cell-based; conditions: HC pre-treated with high concentration for more than 2 hours
Method: HC in WE medium was incubated with or without test compounds for 1 hour. Then, the HC was seeded onto 96-well microplates (2×10^4 cells/0.2 ml/wells) and incubated at 37° C. with 5% (v/v) CO2 in air for 5 hours. After 5 hours, HC monolayers were washed twice with the medium, and then 8×10^4 cells of NPC were added. […] The test compounds were the same ones as described in Experiment 2, above.

[11] = NPC pre-incubated 1 hour with various concentrations, co-culture with HC 3 hours, FIG. 2
[12] = dose 50 mg/kg orally for 6 days
[13] = dose 100 mg/kg orally for 6 days

O=P1(N(CCCl)CCCl)NCCCO1 (stereo not drawn) [cyclophosphamide, reference compound]
serum ALT activity ([1]; 10 mg/kg, given in both induction and effector phases, positive control): significant decrease
histopathological examination of liver (inflammatory infiltration, hepatocellular coagulation necrosis) [1]: improvement of liver injury

COC(=O)c1cc(OC)c2c(c1-c1c(C(=O)OC)cc(OC)c3c1OCO3)OCO2 [BDD, biphenyl dimethyl dicarboxylate, reference compound]
ALT elevation ([2]; 150 mg/kg orally, positive control): significantly decreased
ALT ([2]; dose 150 mg/kg orally): 510.7 ± 27.0 Karmen unit
AST ([2]; dose 150 mg/kg orally): 675.6 ± 80.9 Karmen unit

C[C@@H]1O[C@@H](O[C@@H]2C(=O)c3c(O)cc(O)cc3OC2c2cc(O)cc(O)c2)[C@H](O)[C@H](O)[C@H]1O (stereo partly drawn) [smitilbin]
ALT activity in supernatants of HC co-cultured with pre-treated NPC [3]: dose-dependently inhibited
ALT release from HC treated with CCl4 [4]: None of the test compounds

C[C@@H]1O[C@@H](Oc2coc3cc(O)cc(O)c3c2=O)[C@H](O)[C@H](O)[C@H]1O [eucryphin]
ALT activity in supernatants of HC co-cultured with pre-treated NPC [3]: much stronger inhibitory effect
ALT release from HC treated with CCl4 [4]: None of the test compounds

C[C@@H]1O[C@@H](O[C@H]2C(=O)c3c(O)cc(O)cc3O[C@@H]2c2ccc(O)c(O)c2)[C@H](O)[C@H](O)[C@H]1O [astilbin]
ratio of apoptotic cells in total NPC [5]: significantly increased
ratio of apoptotic cells in the fraction of adherent cells of NPC [6]: no influence
ratio of apoptotic cells in non-adherent fraction isolated from NPC [7]: increased
DNA ladder pattern (DNA fragmentation) [8]: DNA ladder' pattern appeared
DNA ladder pattern (DNA fragmentation) [9]: no DNA ladder' pattern appeared
ALT release ([3]; 5×10^−5 g/ml, NPC pre-incubated 1 hour, co-culture with HC 3 hours): complete inhibition
ALT releasing ([3]; 5×10^−5 g/ml, pre-treatment of NPC for more than 30 minutes): completely inhibited
ALT activity in supernatants of HC co-cultured with pre-treated NPC [3]: dose-dependently inhibited
ALT releasing activity of NPC [3, 11]: dose-dependently inhibited; also recorded: stronger activity than RSG ext
AST releasing activity of NPC [3, 11]: dose-dependently inhibited
releasing of ALT from HC ([3]; NPC pre-treated with 5×10^−5 g/ml for 5, 15, 30, 60 and 120 minutes, FIG. 3): inhibited time-dependently
ALT releasing [10]: not changed
histopathological examination of liver (inflammatory infiltration, hepatocellular coagulation necrosis) [1]: improvement of liver injury
serum ALT activity ([1]; high dose (astilbin 100 mg/kg, RSG ext 200 mg/kg) orally in effector phase, 3 times at 0, 5 and 10 hours after elicitation, blood 18 hours after): significant decrease
serum ALT activity ([1]; low dose (astilbin 50 mg/kg, RSG ext 100 mg/kg) orally in effector phase): tendency of decreasing
effect on elevation of ALT and AST activities ([2]; astilbin 50 or 100 mg/kg, RSG ext 100 or 200 mg/kg orally for 6 days before CCl4): no effect
ALT [2, 12]: 901.6 ± 36.1 Karmen unit
AST [2, 12]: 670.4 ± 21.2 Karmen unit
ALT [2, 13]: 921.5 ± 40.2 Karmen unit
AST [2, 13]: 688.2 ± 45.6 Karmen unit
ALT release from HC treated with CCl4 [4]: None of the test compounds
ALT release from HC treated with CCl4 ([4]; listed as Astilbin): did not affect

C[C@@H]1O[C@@H](O[C@H]2C(=O)c3c(O)cc(O)cc3O[C@@H]2c2ccc(O)cc2)[C@H](O)[C@H](O)[C@H]1O [engeletin]
ALT activity in supernatants of HC co-cultured with pre-treated NPC [3]: dose-dependently inhibited
ALT release from HC treated with CCl4 [4]: None of the test compounds
